# Assay results as given in US20240252506A1 (Hoffmann-La Roche Inc., priority 2021, published 2024).
# Structures can show the parent of a compound that is named as a salt.
# System: Escherichia coli ATCC 25922
# Experiment: Minimal Inhibitory Concentration (MIC) determination, broth microdilution (CLSI M07-A10)
# Assay type: cell-based
# Settings: Escherichia coli, ATCC25922, strain Escherichia coli ATCC 25922, 18-24 hours at 35±2° C., lowest concentration for complete growth inhibition (no visible growth), read-out: Escherichia coli growth inhibition MIC
# Procedure, shortened: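 MIC read visually as the lowest concentration with complete growth inhibition after 18-24 h at 35±2° C, ambient air. Method follows CLSI M07-A10 broth microdilution, two-fold compound series, inoculum standardized to 0.5 McFarland then diluted 1:200.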
row,Compound,MIC
1,"Cc1nc2c(F)c3c(c(F)c2[nH]1)CC(CNCCC1CN(c2cnc4c(n2)NC(=O)CO4)C(=O)O1)C3 (stereo not shown) [Example 1, 6-[5-[2-[(4,8-Difluoro-2-methyl-3,5,6,7-tetrahydrocyclopenta[f]benzimidazol-6-yl)methylamino]ethyl]-2-oxo-oxazolidin-3-yl]-4H-pyrazino[2,3-b][1,4]oxazin-3-one]",0.5 µg/mL
2,"CN(C)Cc1nc2c(F)c3c(c(F)c2[nH]1)CC(CNCCC1CN(c2cnc4c(n2)NC(=O)CO4)C(=O)O1)C3 (stereo not shown) [Example 2, 6-[5-[2-[[2-[(dimethylamino)methyl]-4,8-difluoro-3,5,6,7-tetrahydrocyclopenta[f]benzimidazol-6-yl]methylamino]ethyl]-2-oxo-oxazolidin-3-yl]-4H-pyrazino[2,3-b][1,4]oxazin-3-one]",0.5 µg/mL
3,"CN(C)Cc1nc2c(F)c3c(c(F)c2[nH]1)CC(CN1CCC2(CC1)CN(c1cnc4c(n1)NC(=O)CO4)C(=O)O2)C3 [Example 3, 6-[8-[[2-[(dimethylamino)methyl]-4,8-difluoro-3,5,6,7-tetrahydrocyclopenta[f]benzimidazol-6-yl]methyl]-2-oxo-1-oxa-3,8-diazaspiro[4.5]decan-3-yl]-4H-pyrazino[2,3-b][1,4]oxazin-3-one]",0.25 µg/mL
4,"CC(C)(O)c1nc2c(F)c3c(c(F)c2[nH]1)CC(CN1CCC2(CC1)CN(c1cnc4c(n1)NC(=O)CO4)C(=O)O2)C3 [Example 4, 6-[8-[[4,8-difluoro-2-(1-hydroxy-1-methyl-ethyl)-3,5,6,7-tetrahydrocyclopenta[f]benzimidazol-6-yl]methyl]-2-oxo-1-oxa-3,8-diazaspiro[4.5]decan-3-yl]-4H-pyrazino[2,3-b][1,4]oxazin-3-one]",0.5 µg/mL
5,"O=C1COc2ncc(N3CC4(CCN(CC5Cc6c(c(F)c7[nH]c(CN8CCS(=O)(=O)CC8)nc7c6F)C5)CC4)OC3=O)nc2N1 [Example 5, 6-[8-[[2-[(1,1-dioxo-1,4-thiazinan-4-yl)methyl]-4,8-difluoro-3,5,6,7-tetrahydrocyclopenta[f]benzimidazol-6-yl]methyl]-2-oxo-1-oxa-3,8-diazaspiro[4.5]decan-3-yl]-4H-pyrazino[2,3-b][1,4]oxazin-3-one]",2 µg/mL
6,"CN1CCOC(c2nc3c(F)c4c(c(F)c3[nH]2)CC(CN2CCC3(CC2)CN(c2cnc5c(n2)NC(=O)CO5)C(=O)O3)C4)C1 (stereo not shown) [Example 6, 6-[8-[[4,8-difluoro-2-(4-methylmorpholin-2-yl)-3,5,6,7-tetrahydrocyclopenta[f]benzimidazol-6-yl]methyl]-2-oxo-1-oxa-3,8-diazaspiro[4.5]decan-3-yl]-4H-pyrazino[2,3-b][1,4]oxazin-3-one]",1 µg/mL
7,"CN(C)CCc1nc2c(F)c3c(c(F)c2[nH]1)CC(CN1CCC2(CC1)CN(c1cnc4c(n1)NC(=O)CO4)C(=O)O2)C3 [Example 7, 6-[8-[[2-[2-(dimethylamino)ethyl]-4,8-difluoro-3,5,6,7-tetrahydrocyclopenta[f]benzimidazol-6-yl]methyl]-2-oxo-1-oxa-3,8-diazaspiro[4.5]decan-3-yl]-4H-pyrazino[2,3-b][1,4]oxazin-3-one]",0.125 µg/mL
8,"O=C1COc2ncc(N3CC4(CCN(CC5Cc6c(c(F)c7[nH]c(CN8CCOCC8)nc7c6F)C5)CC4)OC3=O)nc2N1 [Example 8, 6-[8-[[4,8-difluoro-2-(morpholinomethyl)-3,5,6,7-tetrahydrocyclopenta[f]benzimidazol-6-yl]methyl]-2-oxo-1-oxa-3,8-diazaspiro[4.5]decan-3-yl]-4H-pyrazino[2,3-b][1,4]oxazin-3-one]",1 µg/mL
9,"CNCc1nc2c(F)c3c(c(F)c2[nH]1)CC(CN1CCC2(CC1)CN(c1cnc4c(n1)NC(=O)CO4)C(=O)O2)C3 [Example 9, 6-[8-[[4,8-Difluoro-2-(methylaminomethyl)-3,5,6,7-tetrahydrocyclopenta[f]benzimidazol-6-yl]methyl]-2-oxo-1-oxa-3,8-diazaspiro[4.5]decan-3-yl]-4H-pyrazino[2,3-b][1,4]oxazin-3-one]",0.125 µg/mL
10,"NCc1nc2c(F)c3c(c(F)c2[nH]1)CC(CN1CCC2(CC1)CN(c1cnc4c(n1)NC(=O)CO4)C(=O)O2)C3.O=C(O)C(F)(F)F [Example 10, 6-[8-[[2-(aminomethyl)-4,8-difluoro-3,5,6,7-tetrahydrocyclopenta[f]benzimidazol-6-yl]methyl]-2-oxo-1-oxa-3,8-diazaspiro[4.5]decan-3-yl]-4H-pyrazino[2,3-b][1,4]oxazin-3-one; 2,2,2-trifluoroacetic acid]",0.125 µg/mL
11,"O=C(O)C(F)(F)F.O=C1COc2ncc(N3CC4(CCN(CC5Cc6c(c(F)c7[nH]c([C@@H]8CCCN8)nc7c6F)C5)CC4)OC3=O)nc2N1 [Example 11, 6-[8-[[4,8-difluoro-2-[(2S)-pyrrolidin-2-yl]-3,5,6,7-tetrahydrocyclopenta[f]benzimidazol-6-yl]methyl]-2-oxo-1-oxa-3,8-diazaspiro[4.5]decan-3-yl]-4H-pyrazino[2,3-b][1,4]oxazin-3-one; 2,2,2-trifluoroacetic acid]",0.125 µg/mL
12,"CNCc1nc2c(F)c3c(cc2[nH]1)CC(CN1CCC2(CC1)CN(c1cnc4c(n1)NC(=O)CO4)C(=O)O2)C3.O=C(O)C(F)(F)F (stereo not shown) [Example 12, 6-[8-[[8-fluoro-2-(methylaminomethyl)-1,5,6,7-tetrahydrocyclopenta[f]benzimidazol-6-yl]methyl]-2-oxo-1-oxa-3,8-diazaspiro[4.5]decan-3-yl]-4H-pyrazino[2,3-b][1,4]oxazin-3-one; 2,2,2-trifluoroacetic acid]",0.125 µg/mL
13,"CNCCc1nc2c(F)c3c(c(F)c2[nH]1)CC(CN1CCC2(CC1)CN(c1cnc4c(n1)NC(=O)CO4)C(=O)O2)C3.O=C(O)C(F)(F)F [Example 13, 6-[8-[[4,8-difluoro-2-[2-(methylamino)ethyl]-3,5,6,7-tetrahydrocyclopenta[f]benzimidazol-6-yl]methyl]-2-oxo-1-oxa-3,8-diazaspiro[4.5]decan-3-yl]-4H-pyrazino[2,3-b][1,4]oxazin-3-one; 2,2,2-trifluoroacetic acid]",0.25 µg/mL
14,"O=C(O)C(F)(F)F.O=C1COc2ccc(N3CC4(CCN(CC5Cc6c(c(F)c7[nH]c([C@H]8CCNC8)nc7c6F)C5)CC4)OC3=O)nc2N1 [Example 15, 6-[8-[[4,8-difluoro-2-[(3S)-pyrrolidin-3-yl]-3,5,6,7-tetrahydrocyclopenta[f]benzimidazol-6-yl]methyl]-2-oxo-1-oxa-3,8-diazaspiro[4.5]decan-3-yl]-4H-pyrido[3,2-b][1,4]oxazin-3-one; 2,2,2-trifluoroacetic acid]",0.25 µg/mL
15,"O=C(O)C(F)(F)F.O=C1COc2ncc(N3CC4(CCN(CC5Cc6c(c(F)c7[nH]c(C8CNCCO8)nc7c6F)C5)CC4)OC3=O)nc2N1 (stereo not shown) [Example 16, 6-[8-[(4,8-difluoro-2-morpholin-2-yl-3,5,6,7-tetrahydrocyclopenta[f]benzimidazol-6-yl)methyl]-2-oxo-1-oxa-3,8-diazaspiro[4.5]decan-3-yl]-4H-pyrazino[2,3-b][1,4]oxazin-3-one; 2,2,2-trifluoroacetic acid]",0.25 µg/mL

# Same assay, conditions: strain Escherichia coli ATCC 25922, 18-24 hours at 35±2° C., lowest concentration for complete growth inhibition (no visible growth), dihydrochloride
row,Compound,Escherichia coli growth inhibition MIC
1,"NCCn1nc2cc(F)c3c(c2n1)CC(CN1CCC2(CC1)CN(c1ccc4c(n1)NC(=O)CO4)C(=O)O2)C3 (single isomer, unassigned) [Example 171, 6-[2-Oxo-8-[[2-(2-aminoethyl)-5-fluoro-7,8-dihydro-6H-cyclopenta[e]benzotriazol-7-yl]methyl]-1-oxa-3,8-diazaspiro[4.5]decan-3-yl]-4H-pyrido[3,2-b][1,4]oxazin-3-one dihydrochloride]",≤0.06 µg/mL
